From ChEMBL document CHEMBL1136839, “3,4-Disubstituted isothiazoles: novel potent inhibitors of VEGF receptors 1 and 2” (Bioorg Med Chem Lett, 2009) come the findings set out here.

Data set [1] has as its target Insulin-like growth factor 1 receptor (Homo sapiens) (UniProt P08069). Briefly: Inhibition of IGF1R at 10 uM by HTRF assay. Background: Time-resolved FRET reads energy transfer from a long-lived donor to a nearby acceptor.
In data set [2] the target is T1, Vascular endothelial growth factor receptor 2 (Homo sapiens, UniProt P35968). As to the kind of experiment: Inhibition of VEGFR2 assessed as blockade of pGAT-biotin phosphorylation in presence of 2 uM ATP by HTRF assay.
T1 sequence (P35968 whole entry): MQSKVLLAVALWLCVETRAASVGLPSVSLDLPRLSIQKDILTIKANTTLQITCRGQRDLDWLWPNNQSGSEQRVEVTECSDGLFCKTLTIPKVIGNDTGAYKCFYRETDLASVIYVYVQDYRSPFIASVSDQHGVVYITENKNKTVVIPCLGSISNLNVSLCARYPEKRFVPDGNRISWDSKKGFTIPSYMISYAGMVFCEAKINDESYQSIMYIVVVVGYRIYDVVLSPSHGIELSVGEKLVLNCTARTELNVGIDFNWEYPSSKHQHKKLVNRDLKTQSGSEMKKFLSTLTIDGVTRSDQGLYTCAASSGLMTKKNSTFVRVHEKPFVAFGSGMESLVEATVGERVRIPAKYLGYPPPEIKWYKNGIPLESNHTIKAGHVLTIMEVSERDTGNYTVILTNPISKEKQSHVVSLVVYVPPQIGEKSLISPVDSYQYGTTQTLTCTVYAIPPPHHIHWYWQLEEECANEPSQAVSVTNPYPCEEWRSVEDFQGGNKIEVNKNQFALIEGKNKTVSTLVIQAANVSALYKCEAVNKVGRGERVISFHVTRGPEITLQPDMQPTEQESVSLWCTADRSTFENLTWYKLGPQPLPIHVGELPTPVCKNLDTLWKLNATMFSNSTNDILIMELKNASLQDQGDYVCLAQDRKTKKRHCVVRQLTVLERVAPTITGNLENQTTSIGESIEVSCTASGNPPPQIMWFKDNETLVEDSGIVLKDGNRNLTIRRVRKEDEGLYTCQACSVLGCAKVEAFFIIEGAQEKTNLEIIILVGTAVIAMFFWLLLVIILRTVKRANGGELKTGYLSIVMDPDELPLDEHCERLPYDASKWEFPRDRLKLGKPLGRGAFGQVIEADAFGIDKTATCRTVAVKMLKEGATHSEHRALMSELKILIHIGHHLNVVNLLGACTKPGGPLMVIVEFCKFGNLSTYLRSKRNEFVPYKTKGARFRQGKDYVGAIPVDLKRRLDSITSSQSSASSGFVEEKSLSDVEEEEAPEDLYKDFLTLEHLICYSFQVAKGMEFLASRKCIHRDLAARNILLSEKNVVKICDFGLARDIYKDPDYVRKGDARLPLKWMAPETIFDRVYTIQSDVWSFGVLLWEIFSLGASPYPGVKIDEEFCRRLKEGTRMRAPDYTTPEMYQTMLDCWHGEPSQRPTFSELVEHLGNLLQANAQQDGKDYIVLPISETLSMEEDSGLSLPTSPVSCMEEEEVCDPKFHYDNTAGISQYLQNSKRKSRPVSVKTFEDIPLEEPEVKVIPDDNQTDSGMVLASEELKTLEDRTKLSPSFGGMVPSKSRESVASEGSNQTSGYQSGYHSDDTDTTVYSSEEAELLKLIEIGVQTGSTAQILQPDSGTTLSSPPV
Data set [3] is described as follows: Intrinsic permeability across human Caco-2 cells. (In general: Caco-2 cells form a polarised layer with tight junctions and transporters.)
The target in data set [4] is Receptor-type tyrosine-protein kinase FLT3 (Homo sapiens) (UniProt P36888). Briefly: Inhibition of Flt3 at 10 uM by HTRF assay.
A short description of data set [5]: Inhibition of Bcr-Abl T315 mutant at 10 uM by HTRF assay.
The nature of data set [6]: Inhibition of PKA at 10 uM by HTRF assay.
Data set [7] deals with Bcr/Abl fusion protein (Homo sapiens) (UniProt P00519+P11274). Briefly: Inhibition of bcr-Abl at 10 uM by HTRF assay. Format: protein assay.
In data set [8] the target is Fibroblast growth factor receptor 1 (Homo sapiens) (UniProt P11362). As to the kind of experiment: Inhibition of FGFR1 at 10 uM by HTRF assay.
Data set [9] concerns the target Aurora kinase B (Homo sapiens) (UniProt Q96GD4). Briefly: Inhibition of Aurora B at 10 uM by HTRF assay.
In data set [10] the target is Insulin receptor (Homo sapiens) (UniProt P06213). As to the kind of experiment: Inhibition of InR at 10 uM by HTRF assay.
In data set [11] the target is Glycogen synthase kinase-3 beta (Homo sapiens) (UniProt P49841). Briefly: Inhibition of GSK3-beta at 10 uM by HTRF assay.
Sequence of Glycogen synthase kinase-3 beta (Homo sapiens) (P49841 whole entry, looked up): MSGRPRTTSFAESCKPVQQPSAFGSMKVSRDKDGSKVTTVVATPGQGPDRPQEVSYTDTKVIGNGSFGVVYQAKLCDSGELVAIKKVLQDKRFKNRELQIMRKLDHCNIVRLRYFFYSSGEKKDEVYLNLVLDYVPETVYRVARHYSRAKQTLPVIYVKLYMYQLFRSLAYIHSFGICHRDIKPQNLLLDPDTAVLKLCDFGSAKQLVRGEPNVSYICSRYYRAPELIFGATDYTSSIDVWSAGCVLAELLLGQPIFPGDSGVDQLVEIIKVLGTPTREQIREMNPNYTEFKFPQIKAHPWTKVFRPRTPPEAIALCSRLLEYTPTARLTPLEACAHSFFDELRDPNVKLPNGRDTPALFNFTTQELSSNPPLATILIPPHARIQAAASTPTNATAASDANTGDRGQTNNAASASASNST
Data set [12] addresses Epidermal growth factor receptor (Homo sapiens) (UniProt P00533). Briefly: Inhibition of EGFR at 10 uM by HTRF assay.
In data set [13] the target is Serine/threonine-protein kinase PLK1 (Homo sapiens) (UniProt P53350). Briefly: Inhibition of Plk1 at 10 uM by HTRF assay.
Sequence of Serine/threonine-protein kinase PLK1 (Homo sapiens) (P53350 whole entry): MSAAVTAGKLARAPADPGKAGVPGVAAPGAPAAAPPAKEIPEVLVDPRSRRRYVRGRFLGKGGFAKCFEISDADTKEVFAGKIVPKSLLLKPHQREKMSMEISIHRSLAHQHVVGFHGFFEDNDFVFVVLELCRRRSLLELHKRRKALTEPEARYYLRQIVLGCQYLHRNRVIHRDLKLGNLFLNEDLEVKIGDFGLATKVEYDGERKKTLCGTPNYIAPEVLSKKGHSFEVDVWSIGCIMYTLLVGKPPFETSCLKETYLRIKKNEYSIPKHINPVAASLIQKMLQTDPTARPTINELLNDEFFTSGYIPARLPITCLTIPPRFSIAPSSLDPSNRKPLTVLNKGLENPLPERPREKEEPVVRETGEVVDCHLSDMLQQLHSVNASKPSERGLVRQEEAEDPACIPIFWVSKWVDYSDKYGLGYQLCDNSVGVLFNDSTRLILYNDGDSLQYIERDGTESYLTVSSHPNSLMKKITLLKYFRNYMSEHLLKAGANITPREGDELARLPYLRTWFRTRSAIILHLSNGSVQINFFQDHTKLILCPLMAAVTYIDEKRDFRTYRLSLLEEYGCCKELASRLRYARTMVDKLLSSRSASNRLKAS
The target in data set [14] is T2, Aurora kinase A (Homo sapiens) (UniProt O14965).
T2 sequence (whole entry): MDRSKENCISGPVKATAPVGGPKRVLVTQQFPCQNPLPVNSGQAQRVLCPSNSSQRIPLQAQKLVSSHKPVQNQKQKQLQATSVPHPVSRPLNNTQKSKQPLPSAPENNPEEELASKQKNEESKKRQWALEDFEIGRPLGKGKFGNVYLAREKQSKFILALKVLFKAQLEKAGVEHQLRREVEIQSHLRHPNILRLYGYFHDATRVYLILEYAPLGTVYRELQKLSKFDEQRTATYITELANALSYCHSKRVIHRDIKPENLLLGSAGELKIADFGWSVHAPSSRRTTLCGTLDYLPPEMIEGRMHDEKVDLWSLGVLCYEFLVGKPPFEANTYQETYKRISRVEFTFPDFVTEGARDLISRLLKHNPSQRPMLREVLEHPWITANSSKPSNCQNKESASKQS
Briefly: Inhibition of Aurora A at 10 uM by HTRF assay.

For data set [15], the target named is T1, Vascular endothelial growth factor receptor 2. Briefly: Inhibition of VEGFR2 at IC90 concentration by ATP based competition assay.
The target in data set [16] is Receptor tyrosine-protein kinase erbB-2 (Homo sapiens) (UniProt P04626). Briefly: Inhibition of ErbB2 at 10 uM by HTRF assay.
Data set [17] has as its target Hepatocyte growth factor receptor (Homo sapiens) (UniProt P08581). As to the kind of experiment: Inhibition of cMET at 10 uM by HTRF assay.
Data set [18] addresses T1, Vascular endothelial growth factor receptor 2. Briefly: Inhibition of VEGFR2 at IC50 concentration by ATP based competition assay.
Data set [19] deals with Cyclin-dependent kinase 1 (Homo sapiens) (UniProt P06493). Briefly: Inhibition of CDK1 at 10 uM by HTRF assay.
Sequence of Cyclin-dependent kinase 1 (Homo sapiens) (P06493 whole entry, looked up): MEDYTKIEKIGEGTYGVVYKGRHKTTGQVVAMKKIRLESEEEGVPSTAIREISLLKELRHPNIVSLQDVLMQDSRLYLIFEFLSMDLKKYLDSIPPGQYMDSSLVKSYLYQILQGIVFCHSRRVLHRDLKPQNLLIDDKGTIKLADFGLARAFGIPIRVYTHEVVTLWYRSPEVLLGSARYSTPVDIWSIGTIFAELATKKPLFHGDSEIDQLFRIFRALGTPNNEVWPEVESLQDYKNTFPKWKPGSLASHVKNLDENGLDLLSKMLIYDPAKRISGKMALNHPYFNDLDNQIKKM
Data set [20] concerns the target Vascular endothelial growth factor receptor 1 (Homo sapiens, UniProt P17948). Briefly: Inhibition of VEGFR1 assessed as blockade of pGAT-biotin phosphorylation in presence of 2 uM ATP by HTRF assay.
Data set [21] concerns the target Cyclin-dependent kinase 2 (Homo sapiens) (UniProt P24941). Briefly: Inhibition of CDK2 at 10 uM by HTRF assay.
Data set [22] deals with T1, Vascular endothelial growth factor receptor 2. As to the kind of experiment: Inhibition of VEGFR2 expressed in HEK293 cells assessed as inhibition of receptor phosphorylation by ELISA. Format: cell-based.
Data set [23] addresses Proto-oncogene tyrosine-protein kinase Src (Homo sapiens) (UniProt P12931). As to the kind of experiment: Inhibition of Src at 10 uM by HTRF assay.
Data set [24] deals with Macrophage-stimulating protein receptor (Homo sapiens) (UniProt Q04912). Briefly: Inhibition of Ron at 10 uM by HTRF assay.

Structures are written as SMILES. A value given as a limit tells only on which side of the number the result lay.

Sequence of Insulin-like growth factor 1 receptor (Homo sapiens) (P08069 31-736 limits assumed): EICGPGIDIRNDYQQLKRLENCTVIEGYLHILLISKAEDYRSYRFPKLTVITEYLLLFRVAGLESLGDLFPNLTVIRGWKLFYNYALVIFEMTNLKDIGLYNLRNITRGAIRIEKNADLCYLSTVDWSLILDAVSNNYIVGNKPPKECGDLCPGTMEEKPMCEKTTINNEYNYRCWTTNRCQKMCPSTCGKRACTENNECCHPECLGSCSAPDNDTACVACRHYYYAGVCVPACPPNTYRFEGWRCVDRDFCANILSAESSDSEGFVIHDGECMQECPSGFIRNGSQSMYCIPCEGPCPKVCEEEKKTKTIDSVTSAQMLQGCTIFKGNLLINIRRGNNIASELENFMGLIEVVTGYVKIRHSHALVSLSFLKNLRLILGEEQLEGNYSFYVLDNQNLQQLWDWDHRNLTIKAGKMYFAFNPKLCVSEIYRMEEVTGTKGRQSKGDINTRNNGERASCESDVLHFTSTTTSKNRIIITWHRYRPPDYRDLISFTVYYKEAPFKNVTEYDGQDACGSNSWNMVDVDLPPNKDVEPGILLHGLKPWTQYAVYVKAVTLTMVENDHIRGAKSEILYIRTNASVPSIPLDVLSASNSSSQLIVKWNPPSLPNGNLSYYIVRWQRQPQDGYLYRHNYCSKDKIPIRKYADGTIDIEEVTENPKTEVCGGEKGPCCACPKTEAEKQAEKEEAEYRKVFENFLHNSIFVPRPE
Sequence of Insulin-like growth factor 1 receptor (Homo sapiens) (P08069 741-1367 limits assumed): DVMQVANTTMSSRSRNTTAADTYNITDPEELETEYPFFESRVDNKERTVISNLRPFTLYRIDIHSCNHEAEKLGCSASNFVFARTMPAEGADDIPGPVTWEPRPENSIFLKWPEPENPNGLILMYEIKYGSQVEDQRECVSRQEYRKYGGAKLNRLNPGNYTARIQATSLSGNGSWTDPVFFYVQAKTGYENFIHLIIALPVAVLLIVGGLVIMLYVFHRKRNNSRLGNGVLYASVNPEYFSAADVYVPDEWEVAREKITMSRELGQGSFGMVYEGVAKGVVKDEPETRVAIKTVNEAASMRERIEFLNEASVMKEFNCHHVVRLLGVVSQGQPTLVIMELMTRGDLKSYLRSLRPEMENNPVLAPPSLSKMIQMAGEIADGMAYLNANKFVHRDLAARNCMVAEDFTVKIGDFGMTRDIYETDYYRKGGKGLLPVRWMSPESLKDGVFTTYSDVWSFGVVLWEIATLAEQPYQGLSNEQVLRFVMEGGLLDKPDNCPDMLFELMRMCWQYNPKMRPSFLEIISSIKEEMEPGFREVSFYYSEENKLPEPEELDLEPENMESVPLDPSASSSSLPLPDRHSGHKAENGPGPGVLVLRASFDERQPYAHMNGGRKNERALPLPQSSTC
Sequence of Proto-oncogene tyrosine-protein kinase Src (Homo sapiens) (P12931 2-536 limits assumed): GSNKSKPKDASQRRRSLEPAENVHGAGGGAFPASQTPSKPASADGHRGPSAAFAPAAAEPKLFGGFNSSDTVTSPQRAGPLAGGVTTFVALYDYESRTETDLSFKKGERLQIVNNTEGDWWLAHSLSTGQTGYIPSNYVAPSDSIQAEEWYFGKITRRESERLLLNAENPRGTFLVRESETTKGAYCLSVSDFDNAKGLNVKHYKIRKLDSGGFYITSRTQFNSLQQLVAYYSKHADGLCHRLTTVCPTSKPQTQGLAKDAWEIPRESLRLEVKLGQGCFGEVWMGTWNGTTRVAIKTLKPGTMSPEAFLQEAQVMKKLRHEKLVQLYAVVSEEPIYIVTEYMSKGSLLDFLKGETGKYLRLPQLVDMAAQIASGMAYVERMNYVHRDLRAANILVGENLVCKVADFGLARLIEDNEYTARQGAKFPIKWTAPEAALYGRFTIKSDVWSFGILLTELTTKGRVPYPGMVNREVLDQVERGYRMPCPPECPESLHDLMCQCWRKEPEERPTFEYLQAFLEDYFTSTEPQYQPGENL
Sequence of Aurora kinase B (Homo sapiens) (Q96GD4 whole entry): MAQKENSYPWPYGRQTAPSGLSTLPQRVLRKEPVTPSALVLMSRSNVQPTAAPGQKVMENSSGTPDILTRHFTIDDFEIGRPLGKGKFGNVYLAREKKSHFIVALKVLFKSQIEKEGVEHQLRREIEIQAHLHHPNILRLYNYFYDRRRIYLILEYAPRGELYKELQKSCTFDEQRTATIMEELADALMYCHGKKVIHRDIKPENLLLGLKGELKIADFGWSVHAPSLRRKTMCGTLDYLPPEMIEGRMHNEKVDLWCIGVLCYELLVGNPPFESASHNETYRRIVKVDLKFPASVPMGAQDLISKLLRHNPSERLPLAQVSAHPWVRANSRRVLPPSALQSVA

Take `O=C(Nc1cccc(C(F)(F)F)c1)c1nscc1NCc1ccncc1`: the inhibition in [1], in data set [4], in [5], in data set [6], in data set [7] and in data set [8] was under 30% each time. Besides, the inhibition in data set [9], in data set [10], in data set [11], in data set [12], in [13] and in data set [14] was under 30% throughout. For the same compound, the inhibition in data set [16], in data set [17], in data set [19], in [21], in data set [23] and in data set [24] was under 30% throughout. Also, the IC50 in data set [2] is 41 nM; in [20] it was 170 nM; in data set [22], 54 nM. In data set [3], this compound had a Papp of 6.98 ×10⁻⁶ cm/s. In addition, the Ki was determined as 130 nM in data set [15] and 160 nM in data set [18].

A word on the inhibition: it is the relative decrease from the control value, in per cent. Read a low inhibition as a response near the control. A word on the IC50: it is the point on the concentration scale where inhibition reaches its midpoint. The Papp is a coefficient for how fast a substance crosses the barrier. Read a high Papp as fast passage. Broadly, the Ki is a dissociation constant, usually derived from enzyme kinetics or from competition with a known ligand. The low end stands for higher affinity, the high end for lower affinity.
